Patent US20250353891A1 (MEDIMMUNE LIMITED, priority 2022, published 2025)
Starred links: 1 amine or outer side, 2 acyl side, 3 side chain; linkers in the order of their positions; H or OH if unused. Non-standard residues stand in square brackets, D forms with d. Residues, ends and D or L forms follow the SMILES beside them. Groups on a side chain read outwards from the residue. *: point of attachment. C20 diacid = O=C(O)CCCCCCCCCCCCCCCCCCC(=O)*; C18 diacid = O=C(O)CCCCCCCCCCCCCCCCC(=O)*; γGlu = O=C(O)[C@H](CCC(=O)[*:2])N[*:1]; αMeF = C[C@](N)(Cc1ccccc1)C(=O)O; AEEA = NCCOCCOCC(=O)O; Aib = CC(C)(N)C(=O)O

Tests used:
[1] = molecular target: human GLP-1 receptor (hGLP-1R) (Homo sapiens, UniProt P43220); assay: cAMP production (HTRF) in CHO cells expressing hGLP-1R; format: cell-based; set-up: expressed in transfected cells; conditions: for EC50: Table 6, peptides modified at position 17, cAMP in CHO hGLP-1R cells, geometric mean, read-out: hGLP-1R EC50; for % Relative Potency Ratio: Table 6, % GLP-1R activity relative to GLP-1 / % GlucR activity relative to glucagon
human GLP-1 receptor (hGLP-1R), sequence (P43220 24-463): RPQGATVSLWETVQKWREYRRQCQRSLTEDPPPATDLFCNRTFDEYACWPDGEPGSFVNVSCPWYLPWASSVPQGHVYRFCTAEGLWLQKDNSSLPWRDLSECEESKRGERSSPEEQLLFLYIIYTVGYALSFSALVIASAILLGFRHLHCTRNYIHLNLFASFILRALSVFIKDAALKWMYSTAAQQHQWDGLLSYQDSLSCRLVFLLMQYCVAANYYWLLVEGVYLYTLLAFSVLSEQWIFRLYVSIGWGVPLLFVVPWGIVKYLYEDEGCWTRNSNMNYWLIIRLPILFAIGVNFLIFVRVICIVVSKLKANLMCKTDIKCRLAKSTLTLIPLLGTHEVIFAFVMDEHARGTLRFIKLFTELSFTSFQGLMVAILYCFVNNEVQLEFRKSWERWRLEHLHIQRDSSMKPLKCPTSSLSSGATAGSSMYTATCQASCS
Summary of the method: (§1)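 Potency values represent EC50 from 4-parameter logistic curves of HTRF % Delta F signal. Receptor-expressing CHO cells (hGCGR 2×10^5 cells/mL, hGLP-1R 1×10^5 cells/mL) were exposed for 30 min at room temperature before two-step cAMP detection.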

[2] = molecular target: human glucagon receptor (hGCGR) (Homo sapiens, UniProt P47871); assay: cAMP production (HTRF) in CHO cells expressing hGCGR; format: cell-based; set-up: expressed in transfected cells; conditions: Table 6, peptides modified at position 17; cAMP in CHO hGCGR cells; geometric mean; read-out: hGluc-R EC50
human glucagon receptor (hGCGR), sequence (P47871 26-477): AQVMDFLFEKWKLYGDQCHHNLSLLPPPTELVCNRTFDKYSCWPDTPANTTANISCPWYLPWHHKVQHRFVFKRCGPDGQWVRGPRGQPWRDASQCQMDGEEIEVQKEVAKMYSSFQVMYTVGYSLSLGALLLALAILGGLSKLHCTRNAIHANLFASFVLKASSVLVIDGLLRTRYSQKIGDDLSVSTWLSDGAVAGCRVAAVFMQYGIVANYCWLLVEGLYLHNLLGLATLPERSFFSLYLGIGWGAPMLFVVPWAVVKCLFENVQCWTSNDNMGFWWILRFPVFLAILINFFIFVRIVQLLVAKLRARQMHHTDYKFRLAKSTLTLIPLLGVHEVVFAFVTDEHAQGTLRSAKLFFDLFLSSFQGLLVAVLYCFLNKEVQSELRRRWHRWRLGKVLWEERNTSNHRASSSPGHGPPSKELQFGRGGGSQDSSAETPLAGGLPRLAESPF
Summary of the method: as §1

Structure (SMILES)	EC50 [1] [nM]	% Relative Potency Ratio [1]	EC50 [2] [nM]
CC(C)C[C@H](NC(=O)[C@H](Cc1c[nH]c2ccccc12)NC(=O)[C@H](CCCNC(=N)N)NC(=O)[C@@H](NC(=O)[C@H](Cc1ccccc1)NC(=O)[C@H](CC(=O)O)NC(=O)[C@H](CCC(N)=O)NC(=O)[C@H](C)NC(=O)[C@H](CCCNC(=N)N)NC(=O)[C@H](CCCCNC(=O)COCCOCCNC(=O)COCCOCCNC(=O)CC[C@H](NC(=O)CCCCCCCCCCCCCCCCCCC(=O)O)C(=O)O)NC(=O)[C@H](CO)NC(=O)[C@H](CCC(=O)O)NC(=O)[C@H](CC(C)C)NC(=O)[C@](C)(Cc1ccccc1)NC(=O)[C@H](CCCCN)NC(=O)[C@H](CO)NC(=O)[C@@H](NC(=O)[C@H](CC(=O)O)NC(=O)[C@H](CO)NC(=O)[C@@H](NC(=O)[C@H](Cc1ccccc1)NC(=O)[C@@H](NC(=O)CNC(=O)[C@H](CCC(N)=O)NC(=O)C(C)(C)NC(=O)[C@@H](N)Cc1c[nH]cn1)[C@@H](C)O)[C@@H](C)O)C(C)C)C(C)C)C(=O)N[C@@H](CC(C)C)C(=O)NC(C)(C)C(=O)N[C@H](C(=O)N[C@@H](CCC(=O)O)C(=O)O)[C@@H](C)O [Peptide 509] (H-H[Aib]QGTFTSDVSK[αMeF]LESK([AEEA-AEEA-γGlu-C20 diacid])RAQDFVRWLL[Aib]TE-OH; N-terminus assumed)	0.594	10.1	3.02
CC(C)C[C@H](NC(=O)[C@H](Cc1c[nH]c2ccccc12)NC(=O)[C@H](CCCNC(=N)N)NC(=O)[C@@H](NC(=O)[C@H](Cc1ccccc1)NC(=O)[C@H](CC(=O)O)NC(=O)[C@H](CCCNC(=N)N)NC(=O)[C@H](C)NC(=O)[C@H](CCCNC(=N)N)NC(=O)[C@H](CCCCNC(=O)COCCOCCNC(=O)COCCOCCNC(=O)CC[C@H](NC(=O)CCCCCCCCCCCCCCCCCCC(=O)O)C(=O)O)NC(=O)[C@@H](NC(=O)[C@H](CC(=O)O)NC(=O)[C@H](CC(C)C)NC(=O)[C@](C)(Cc1ccccc1)NC(=O)[C@H](CCCCN)NC(=O)[C@H](CO)NC(=O)[C@@H](NC(=O)[C@H](CC(=O)O)NC(=O)[C@H](CO)NC(=O)[C@@H](NC(=O)[C@H](Cc1ccccc1)NC(=O)[C@@H](NC(=O)CNC(=O)[C@H](CCC(N)=O)NC(=O)C(C)(C)NC(=O)[C@@H](N)Cc1c[nH]cn1)[C@@H](C)O)[C@@H](C)O)C(C)C)[C@@H](C)O)C(C)C)C(=O)N[C@@H](CC(C)C)C(=O)NC(C)(C)C(=O)N[C@@H](CCC(=O)O)C(=O)O [Peptide 510] (H-H[Aib]QGTFTSDVSK[αMeF]LDTK([AEEA-AEEA-γGlu-C20 diacid])RARDFVRWLL[Aib]E-OH; N-terminus assumed)	0.176	1.3	0.118
CC(C)C[C@H](NC(=O)[C@H](Cc1c[nH]c2ccccc12)NC(=O)[C@H](CCCNC(=N)N)NC(=O)[C@@H](NC(=O)[C@H](Cc1ccccc1)NC(=O)[C@H](CC(=O)O)NC(=O)[C@H](CCCNC(=N)N)NC(=O)[C@H](C)NC(=O)[C@H](CCCNC(=N)N)NC(=O)[C@H](CCCCNC(=O)COCCOCCNC(=O)COCCOCCNC(=O)CC[C@H](NC(=O)CCCCCCCCCCCCCCCCCCC(=O)O)C(=O)O)NC(=O)[C@@H](NC(=O)[C@H](CC(=O)O)NC(=O)[C@H](CC(C)C)NC(=O)[C@](C)(Cc1ccccc1)NC(=O)[C@H](CCCCN)NC(=O)[C@H](CO)NC(=O)[C@@H](NC(=O)[C@H](CC(=O)O)NC(=O)[C@H](CO)NC(=O)[C@@H](NC(=O)[C@H](Cc1ccccc1)NC(=O)[C@@H](NC(=O)CNC(=O)[C@H](CCC(N)=O)NC(=O)C(C)(C)NC(=O)[C@@H](N)Cc1c[nH]cn1)[C@@H](C)O)[C@@H](C)O)C(C)C)[C@@H](C)O)C(C)C)C(=O)N[C@@H](CC(C)C)C(=O)NC(C)(C)C(=O)N[C@@H](CCC(=O)O)C(N)=O [Peptide 511] (H-H[Aib]QGTFTSDVSK[αMeF]LDTK([AEEA-AEEA-γGlu-C20 diacid])RARDFVRWLL[Aib]E-NH2; N-terminus assumed)	0.118	2.4	0.14
CC(C)C[C@H](NC(=O)[C@H](CC(C)C)NC(=O)[C@H](Cc1c[nH]c2ccccc12)NC(=O)[C@H](CCCNC(=N)N)NC(=O)[C@@H](NC(=O)[C@](C)(Cc1ccccc1)NC(=O)[C@H](CC(=O)O)NC(=O)[C@H](CCC(N)=O)NC(=O)[C@H](C)NC(=O)[C@H](CCCNC(=N)N)NC(=O)[C@H](CCCCNC(=O)COCCOCCNC(=O)COCCOCCNC(=O)CC[C@H](NC(=O)CCCCCCCCCCCCCCCCC(=O)O)C(=O)O)NC(=O)[C@@H](NC(=O)[C@H](CC(=O)O)NC(=O)[C@H](CC(C)C)NC(=O)[C@](C)(Cc1ccccc1)NC(=O)[C@H](CCCCN)NC(=O)[C@H](CO)NC(=O)[C@@H](NC(=O)[C@H](CC(=O)O)NC(=O)[C@H](CO)NC(=O)[C@@H](NC(=O)[C@](C)(Cc1ccccc1)NC(=O)[C@@H](NC(=O)CNC(=O)[C@H](CCC(N)=O)NC(=O)C(C)(C)NC(=O)[C@@H](N)Cc1c[nH]cn1)[C@@H](C)O)[C@@H](C)O)C(C)C)[C@@H](C)O)C(C)C)C(=O)N[C@@H](C)C(=O)NC(C)(C)C(=O)NCC(N)=O [Peptide 512] (H-H[Aib]QGT[αMeF]TSDVSK[αMeF]LDTK([AEEA-AEEA-γGlu-C18 diacid])RAQD[αMeF]VRWLLA[Aib]G-NH2; N-terminus assumed)	0.159	28.7	2.31
CC(C)C[C@H](NC(=O)[C@H](CC(C)C)NC(=O)[C@H](Cc1c[nH]c2ccccc12)NC(=O)[C@H](CCC(N)=O)NC(=O)[C@@H](NC(=O)[C@](C)(Cc1ccccc1)NC(=O)[C@H](CC(=O)O)NC(=O)[C@H](CCCNC(=N)N)NC(=O)[C@H](C)NC(=O)[C@H](CCCNC(=N)N)NC(=O)[C@H](CCCCNC(=O)COCCOCCNC(=O)COCCOCCNC(=O)CC[C@H](NC(=O)CCCCCCCCCCCCCCCCC(=O)O)C(=O)O)NC(=O)[C@@H](NC(=O)[C@H](CC(=O)O)NC(=O)[C@H](CC(C)C)NC(=O)[C@](C)(Cc1ccccc1)NC(=O)[C@H](CCCCN)NC(=O)[C@H](CO)NC(=O)[C@@H](NC(=O)[C@H](CC(=O)O)NC(=O)[C@H](CO)NC(=O)[C@@H](NC(=O)[C@](C)(Cc1ccccc1)NC(=O)[C@@H](NC(=O)CNC(=O)[C@H](CCC(N)=O)NC(=O)C(C)(C)NC(=O)[C@@H](N)Cc1c[nH]cn1)[C@@H](C)O)[C@@H](C)O)C(C)C)[C@@H](C)O)C(C)C)C(=O)N[C@@H](C)C(=O)NC(C)(C)C(=O)NCC(N)=O [Peptide 513] (H-H[Aib]QGT[αMeF]TSDVSK[αMeF]LDTK([AEEA-AEEA-γGlu-C18 diacid])RARD[αMeF]VQWLLA[Aib]G-NH2)	0.0938	28.3	1.34
CC(C)C[C@H](NC(=O)[C@H](Cc1c[nH]c2ccccc12)NC(=O)[C@H](CCC(N)=O)NC(=O)[C@@H](NC(=O)[C@H](Cc1ccccc1)NC(=O)[C@H](CC(=O)O)NC(=O)[C@H](CCCNC(=N)N)NC(=O)[C@H](C)NC(=O)[C@H](C)NC(=O)[C@H](CCCCNC(=O)COCCOCCNC(=O)COCCOCCNC(=O)CC[C@H](NC(=O)CCCCCCCCCCCCCCCCC(=O)O)C(=O)O)NC(=O)[C@@H](NC(=O)[C@H](CC(=O)O)NC(=O)[C@H](CC(C)C)NC(=O)[C@](C)(Cc1ccccc1)NC(=O)[C@H](CCCCN)NC(=O)[C@H](CO)NC(=O)[C@@H](NC(=O)[C@H](CC(=O)O)NC(=O)[C@H](CO)NC(=O)[C@@H](NC(=O)[C@H](Cc1ccccc1)NC(=O)[C@@H](NC(=O)CNC(=O)[C@H](CCC(N)=O)NC(=O)C(C)(C)NC(=O)[C@@H](N)Cc1c[nH]cn1)[C@@H](C)O)[C@@H](C)O)C(C)C)[C@@H](C)O)C(C)C)C(=O)N[C@@H](CC(C)C)C(=O)N[C@@H](CCC(=O)O)C(=O)NC(C)(C)C(=O)NCC(N)=O [Peptide 514] (H-H[Aib]QGTFTSDVSK[αMeF]LDTK([AEEA-AEEA-γGlu-C18 diacid])AARDFVQWLLE[Aib]G-NH2; N-terminus assumed)	0.0767	35.4	1.37
CC(C)C[C@H](NC(=O)[C@H](Cc1c[nH]c2ccccc12)NC(=O)[C@H](CCC(N)=O)NC(=O)[C@@H](NC(=O)[C@H](Cc1ccccc1)NC(=O)[C@H](CC(=O)O)NC(=O)[C@H](CCCNC(=N)N)NC(=O)[C@H](C)NC(=O)[C@H](C)NC(=O)[C@H](CCCCNC(=O)COCCOCCNC(=O)COCCOCCNC(=O)CC[C@H](NC(=O)CCCCCCCCCCCCCCCCCCC(=O)O)C(=O)O)NC(=O)[C@@H](NC(=O)[C@H](CC(=O)O)NC(=O)[C@H](CC(C)C)NC(=O)[C@](C)(Cc1ccccc1)NC(=O)[C@H](CCCCN)NC(=O)[C@H](CO)NC(=O)[C@@H](NC(=O)[C@H](CC(=O)O)NC(=O)[C@H](CO)NC(=O)[C@@H](NC(=O)[C@H](Cc1ccccc1)NC(=O)[C@@H](NC(=O)CNC(=O)[C@H](CCC(N)=O)NC(=O)C(C)(C)NC(=O)[C@@H](N)Cc1c[nH]cn1)[C@@H](C)O)[C@@H](C)O)C(C)C)[C@@H](C)O)C(C)C)C(=O)N[C@@H](CC(C)C)C(=O)N[C@@H](CCC(=O)O)C(=O)NC(C)(C)C(=O)NCC(N)=O [Peptide 515] (H-H[Aib]QGTFTSDVSK[αMeF]LDTK([AEEA-AEEA-γGlu-C20 diacid])AARDFVQWLLE[Aib]G-NH2; N-terminus assumed)	0.297	17.7	2.66
